From patent publication US4336192A, “5,6-Dihydro-11-alkylene-morphanthridin-6-ones” (BASF Aktiengesellschaft, priority 1979, dated 1982)
“Also recorded” adds a separate entry of the source. Where a name gives a salt, the structure may show the parent alone. Read-outs that look alike come from different tables or passages of the source.

Legend:
[1] = test system: female NMRI mice; test: Sedative effect: orientation hypermotility in a new environment, measured photoelectrically; assay type: in vivo; conditions: for ED50: Mus musculus, 0.5 h, read-out: Sedative effect ED 50%, oral, female NMRI mice, dose which reduces orientation hypermotility by 50% vs untreated controls, 30 min after administration; for Sedative effect (in words): result in words
Description: The substances are administered orally to groups of 4×3 or 8×3 female NMRI mice. The orientation hypermotility induced by a new environment is determined photoelectrically, 30 minutes after the administration of the substances, for a period of 30 minutes.

[2] = test system: female NMRI mice; test: Analgesic effect: D'amour and Smith tail-flick method; assay type: in vivo; conditions: for Analgesic effect (in words): result in words
Description: The analgesic effect is determined by means of the D'amour and Smith (1941) tail-flick method. In this, the substances are administered intraperitoneally to groups of 10 female NMRI mice. The pain reaction is triggered 30 minutes after administration. The reaction time, until the tail is flicked out of the way after exposure to a focused light beam, is measured.

[3] = test system: female NMRI mice; test: Anti-cholinergic effect: protection against death from Physostigmin; assay type: in vivo; conditions: for ED50: Mus musculus, read-out: Anti-cholinergic effect ED 50%, oral, 30 min before Physostigmin 0.825 mg/kg s.c., female NMRI mice, dose which protects 50% of animals against death; for Anti-cholinergic effect R.A. (relative activity): Clozapin = 1.00; for Anti-cholinergic effect (in words): result in words, Physostigmin antagonism
Description: 3. Anti-cholinergic effect
A lethal dose (0.825 mg/kg) of Physostigmin is administered subcutaneously to groups of 10 female NMRI mice. The test substances are administered orally 30 minutes before administering the Physostigmin.

[4] = test system: female Sprague-Dawley rats; test: Apomorphine-antagonistic effect: apomorphine-triggered jaw motions (mandibulogram); assay type: in vivo; conditions: for ED50: Rattus norvegicus, sc, read-out: Apomorphine antagonism ED 50%, female Sprague-Dawley rats, 1.5 mg of apomorphine/kg s.c., dose which reduces number of jaw movements by 50%; for Apomorphine-antagonistic effect (in words): result in words
Description: 4. Apomorphine-antagonistic effect
Jaw motions are triggered in groups of 4-6 female Sprague-Dawley rats by subcutaneous administration of 1.5 mg of apomorphine/kg, and are recorded by means of implanted electrodes (KUBACKI mandibulogram, 1978).

[5] = Acute toxicity; conditions: mouse, in vivo, ip, read-out: Toxicity LD 50
Description: The substances are administered intraperitoneally to groups of 5-10 female NMRI mice.

[6] = intraperitoneal, female NMRI mice, dose which causes death of 50% of animals

SMILES	ED50 [1]	Sedative effect (in words) [1]	Analgesic effect R.A. (relative activity) ([2]; relative activity, Clozapin = 1.00)	ED50 [3]	Anti-cholinergic effect R.A. (relative activity) [3]	ED50 [4]	LD50 [5, 6]	Anti-cholinergic effect (in words) [3]	LD50 [5]	Analgesic effect (in words) [2]	Apomorphine-antagonistic effect (in words) [4]	Analgesic effect ED 100% ([2]; intraperitoneal, female NMRI mice, dose which lengthens tail-flick reaction time by 100% vs control, 30 min after administration)
N#CC=C1c2ccccc2N=C(NCCN2CCCCC2)c2ccccc21 (mixture of isomers) [Example 39 (cis-trans mixture), cis,trans-11-Cyanomethylene-6-(2-piperidin-1-ylethylamino)-morphanthridine.1/2H2 O]	1.61 mg/kg	strong sedative effects	> 0.21	> 10 mg/kg	> 1.41	46 mg/kg	5.35 mg/kg	–	–	–	–	–
CCN1CCN(C2=Nc3ccccc3C(=CC#N)c3ccccc32)CC1 (mixture of isomers) [Example 36 (cis-trans mixture), cis,trans-11-Cyanomethylene-6-(4-ethyl-piperazin-1-yl)-morphanthridine]	3.34 mg/kg	relatively strong sedative effects	–	7.8 mg/kg	–	43 mg/kg	–	manifests itself especially	100 mg/kg	–	–	–
N#CC=C1c2ccccc2N=C(N2CCCNCC2)c2ccccc21 (mixture of isomers) [Example 37 (cis-trans mixture), cis,trans-11-Cyanomethylene-6-homopiperazin-1-yl-morphanthridine.HCl.H2 O]	> 21.5 mg/kg	–	–	5.49 mg/kg	2.57	> 100 mg/kg	69.8 mg/kg	manifests itself especially	–	–	–	–
CN1CCN(C2=Nc3cc(Cl)ccc3Nc3ccccc32)CC1 [Clozapin, reference compound]	4.74 mg/kg	–	–	14.1 mg/kg	1.00	8 mg/kg	215 mg/kg	–	–	–	–	–
C[N+]1([O-])CCN(C2=Nc3ccccc3/C(=C/C#N)c3ccccc32)CC1 [Example 44 (cis-isomer), cis-11-cyanomethylene-6-(4-methyl-4-oxy-piperazin-1-yl)-morphanthridine]	17.6 mg/kg	–	–	100 mg/kg	0.14	> 100 mg/kg	261 mg/kg	–	–	–	–	–
Cc1ccc2c(c1)N=C(N1CCN(C)CC1)c1ccccc1C2=CC#N (mixture of isomers) [Example 30 (cis-trans mixture), cis,trans-3-Methyl-11-cyanomethylene-6-(4-methylpiperazin-1-yl)-morphanthridine]	0.804 mg/kg	strong sedative effects; also recorded: high sedative activity (greater than that of Clozapin and Perlapin)	–	31.2 mg/kg	0.45	35 mg/kg	178 mg/kg	moderate anti-cholinergic effect	–	An analgesic effect is found; also recorded: stronger analgesic effect	–	–
C[N+]1([O-])CCN(C2=Nc3ccccc3C(=CC#N)c3ccccc32)CC1 (mixture of isomers) [Example 44 (cis-trans mixture), cis,trans-11-Cyanomethylene-6-(4-methyl-4-oxy-piperazin-1-yl)-morphanthridine.2H2 O]	14.3 mg/kg	–	–	1.98 mg/kg	7.12	85 mg/kg	464 mg/kg	manifests itself especially	–	–	–	–
CCN1CCN(C2=Nc3ccccc3/C(=C\C#N)c3ccccc32)CC1 [Example 36 (trans-isomer), trans-11-cyanomethylene-6-(4-ethyl-piperazin-1-yl)-morphanthridine]	> 100 mg/kg	little or no sedative effect	–	5.6 mg/kg	–	22 mg/kg	> 100 mg/kg	manifests itself especially; also recorded: stronger anti-cholinergic and apomorphine-antagonistic effect	–	–	stronger anti-cholinergic and apomorphine-antagonistic effect	–
Cc1ccc2c(c1)N=C(N1CCN(C)CC1)c1ccccc1/C2=C\C#N [Example 30 (cis-isomer), cis-3-methyl-11-cyanomethylene-6-(4-methyl-piperazin-1-yl)-morphanthridine]	1.06 mg/kg	strong sedative and strong analgesic effects	–	–	–	85 mg/kg	–	–	287 mg/kg	substantially more active than Clozapin; also recorded: strong sedative and strong analgesic effects	weaker apomorphine-antagonistic effect than that of Clozapin and Perlapin	–
CN1CCN(C2=Nc3ccccc3/C(=C/C#N)c3ccccc32)CC1 [Example 17 (cis-isomer), cis 11-cyanomethylene-6-(4-methylpiperazin-1-yl)-morphanthridine]	1.98 mg/kg	strong sedative effects; also recorded: responsible for the sedative effect	–	17.4 mg/kg	–	46 mg/kg	–	relative to Clozapin, an approximately comparable anti-cholinergic effect	147 mg/kg	–	lower apomorphine-antagonistic effect	–
C[N+]1([O-])CCN(C2=Nc3ccccc3/C(=C\C#N)c3ccccc32)CC1 [Example 44 (trans-isomer), trans-11-cyanomethylene-6-(4-methyl-4-oxy-piperazin-1-yl)-morphanthridine]	100 mg/kg	little or no sedative effect	–	3.74 mg/kg	3.77	25 mg/kg	559 mg/kg	manifests itself especially; also recorded: stronger anti-cholinergic and apomorphine-antagonistic effect	–	–	stronger anti-cholinergic and apomorphine-antagonistic effect	–
CN1CCN(C2=Nc3ccccc3Cc3ccccc32)CC1 [Perlapin, reference compound]	2.05 mg/kg	–	–	> 21.5 mg/kg	< 0.66	22 mg/kg	215 mg/kg	–	–	–	–	> 21.5
Cc1ccc2c(c1)N=C(N1CCN(C)CC1)c1ccccc1/C2=C/C#N [Example 30 (trans-isomer), trans-3-methyl-11-cyanomethylene-6-(4-methylpiperazin-1-yl)-morphanthridine]	33.6 mg/kg	little or no sedative effect	–	12.3 mg/kg	–	19 mg/kg	> 100 mg/kg	stronger anti-cholinergic and apomorphine-antagonistic effect	–	–	stronger anti-cholinergic and apomorphine-antagonistic effect	–
CN1CCN(C2=Nc3ccccc3/C(=C\C#N)c3ccccc32)CC1 [Example 17 (trans-isomer), trans-11-cyanomethylene-6-(4-methyl-piperazin-1-yl)-morphanthridine]	> 21.5 mg/kg	very slight	–	4.7 mg/kg	–	12 mg/kg	332 mg/kg	manifests itself especially; also recorded: particularly exhibits an anti-cholinergic and apomorphine-antagonistic effect	–	–	particularly exhibits an anti-cholinergic and apomorphine-antagonistic effect	–
CN1CCN(C2=Nc3ccccc3C(=CC#N)c3ccccc32)CC1 (mixture of isomers) [Example 17 (cis-trans mixture), cis,trans-11-cyanomethylene-6-(4-methyl-piperazin-1-yl)-morphanthridine]	2.78 mg/kg	relatively strong sedative effects; also recorded: more strongly sedative	–	6.26 mg/kg	–	22 mg/kg	–	manifests itself especially; also recorded: more strongly sedative and anti-cholinergic	121 mg/kg	not analgesically active	somewhat weaker than that of Clozapin	–
Cc1ccc2c(c1)C(=CC#N)c1ccccc1C(N1CCN(C)CC1)=N2 (mixture of isomers) [Example 31 (cis-trans mixture), cis,trans-2-Methyl-11-cyanomethylene-6-(4-methylpiperazin-1-yl)-morphanthridine]	3.35 mg/kg	relatively strong sedative effects	–	2.74 mg/kg	–	42 mg/kg	50 mg/kg	manifests itself especially	–	–	–	–
